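Five concentrations, 48 hours, 96-well plates. GI50 marks 50% less growth. TGI: concentration producing complete growth inhibition.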
What was measured:
Test in all cases: DTP human tumour cell line panel, 48 h
OVCAR-4 ovarian = tested on: OVCAR-4 ovarian
SNB-19 CNS = tested on: SNB-19 CNS
PC-3 prostate = tested on: PC-3 prostate
SK-MEL-5 melanoma = tested on: SK-MEL-5 melanoma
RXF 393 renal = tested on: RXF 393 renal
RPMI-8226 leukemia = tested on: RPMI-8226 leukemia
NCI-H23 lung = tested on: NCI-H23 lung
UO-31 renal = tested on: UO-31 renal
T-47D breast = tested on: T-47D breast
SK-OV-3 ovarian = tested on: SK-OV-3 ovarian
SK-MEL-28 melanoma = tested on: SK-MEL-28 melanoma
OVCAR-5 ovarian = tested on: OVCAR-5 ovarian
IGROV1 ovarian = tested on: IGROV1 ovarian
A498 renal = tested on: A498 renal
HCC-2998 colon = tested on: HCC-2998 colon
UACC-62 melanoma = tested on: UACC-62 melanoma
OVCAR-3 ovarian = tested on: OVCAR-3 ovarian
TK-10 renal = tested on: TK-10 renal
MOLT-4 leukemia = tested on: MOLT-4 leukemia
A549 NSCLC = tested on: A549 NSCLC
HCT-116 colon = tested on: HCT-116 colon
SN12C renal = tested on: SN12C renal
EKVX NSCLC = tested on: EKVX NSCLC
MALME-3M melanoma = tested on: MALME-3M melanoma
CAKI-1 renal = tested on: CAKI-1 renal
MCF7 breast = tested on: MCF7 breast
NCI/ADR-RES ovarian = tested on: NCI/ADR-RES ovarian
SK-MEL-2 melanoma = tested on: SK-MEL-2 melanoma
HOP-62 NSCLC = tested on: HOP-62 NSCLC
HCT-15 colon = tested on: HCT-15 colon
ACHN renal = tested on: ACHN renal
OVCAR-8 ovarian = tested on: OVCAR-8 ovarian
NCI-H522 lung = tested on: NCI-H522 lung
DU-145 prostate = tested on: DU-145 prostate
UACC-257 melanoma = tested on: UACC-257 melanoma
HL-60(TB) leukemia = tested on: HL-60(TB) leukemia
HS 578T breast = tested on: HS 578T breast
MDA-MB-435 = tested on: MDA-MB-435
HOP-92 NSCLC = tested on: HOP-92 NSCLC
HT29 colon = tested on: HT29 colon
U251 CNS = tested on: U251 CNS
SF-268 CNS = tested on: SF-268 CNS
BT-549 breast = tested on: BT-549 breast
COLO 205 colon = tested on: COLO 205 colon
SNB-75 CNS = tested on: SNB-75 CNS
SW-620 colon = tested on: SW-620 colon
LOX IMVI melanoma = tested on: LOX IMVI melanoma
SF-539 CNS = tested on: SF-539 CNS
NCI-H226 lung = tested on: NCI-H226 lung
MDA-MB-231 breast = tested on: MDA-MB-231 breast
SF-295 CNS = tested on: SF-295 CNS
KM12 colon = tested on: KM12 colon
786-0 renal = tested on: 786-0 renal
NCI-H460 lung = tested on: NCI-H460 lung
K-562 leukemia = tested on: K-562 leukemia

O=C(c1cc(F)c(Cl)cc1Cl)N1N=C(c2ccccc2)CC1(O)c1ccccc1 (stereo not given)
GI50 (OVCAR-4 ovarian): 17.8 µM
TGI (OVCAR-4 ovarian): 57.8 µM
GI50 (SNB-19 CNS): 29.2 µM
TGI (SNB-19 CNS): 93.7 µM
GI50 (PC-3 prostate): 12.9 µM
TGI (PC-3 prostate): 40.5 µM
GI50 (SK-MEL-5 melanoma): 14 µM
TGI (SK-MEL-5 melanoma): 26.9 µM
GI50 (RXF 393 renal): 23.6 µM
TGI (RXF 393 renal): 48.1 µM
GI50 (RPMI-8226 leukemia): 11.5 µM
TGI (RPMI-8226 leukemia): 35.4 µM
GI50 (NCI-H23 lung): 20.2 µM
TGI (NCI-H23 lung): 48.2 µM
GI50 (UO-31 renal): 15.7 µM
TGI (UO-31 renal): 30.1 µM
GI50 (T-47D breast): 18.1 µM
TGI (T-47D breast): 53.7 µM
GI50 (SK-OV-3 ovarian): 28.4 µM
TGI (SK-OV-3 ovarian): 80.1 µM
GI50 (SK-MEL-28 melanoma): 16.2 µM
TGI (SK-MEL-28 melanoma): 31.6 µM
GI50 (OVCAR-5 ovarian): 23.3 µM
TGI (OVCAR-5 ovarian): 70.9 µM
GI50 (IGROV1 ovarian): 15.2 µM
TGI (IGROV1 ovarian): 36.7 µM
GI50 (A498 renal): 11.8 µM
TGI (A498 renal): 24 µM
GI50 (HCC-2998 colon): 16.9 µM
TGI (HCC-2998 colon): 37.8 µM
GI50 (UACC-62 melanoma): 11.1 µM
TGI (UACC-62 melanoma): 23.9 µM
GI50 (OVCAR-3 ovarian): 18.9 µM
TGI (OVCAR-3 ovarian): 59.5 µM
GI50 (TK-10 renal): 30.8 µM
TGI (TK-10 renal): 80.8 µM
GI50 (MOLT-4 leukemia): 19.8 µM
TGI (MOLT-4 leukemia): 43 µM
GI50 (A549 NSCLC): 27.8 µM
TGI (A549 NSCLC): > 100 µM
GI50 (HCT-116 colon): 10.1 µM
TGI (HCT-116 colon): 21.7 µM
GI50 (SN12C renal): 18.7 µM
TGI (SN12C renal): 40.5 µM
GI50 (EKVX NSCLC): 19.2 µM
TGI (EKVX NSCLC): 65.5 µM
GI50 (MALME-3M melanoma): 25.5 µM
TGI (MALME-3M melanoma): 55.6 µM
GI50 (CAKI-1 renal): 31.7 µM
TGI (CAKI-1 renal): > 100 µM
GI50 (MCF7 breast): 18.3 µM
TGI (MCF7 breast): 38.2 µM
GI50 (NCI/ADR-RES ovarian): 19 µM
TGI (NCI/ADR-RES ovarian): 41 µM
GI50 (SK-MEL-2 melanoma): 18.1 µM
TGI (SK-MEL-2 melanoma): 38 µM
GI50 (HOP-62 NSCLC): 13.7 µM
TGI (HOP-62 NSCLC): 27.6 µM
GI50 (HCT-15 colon): 13.8 µM
TGI (HCT-15 colon): 28.3 µM
GI50 (ACHN renal): 23 µM
TGI (ACHN renal): 59.4 µM
GI50 (OVCAR-8 ovarian): 25.5 µM
TGI (OVCAR-8 ovarian): 72.4 µM
GI50 (NCI-H522 lung): 14.5 µM
TGI (NCI-H522 lung): 36.9 µM
GI50 (DU-145 prostate): 17.3 µM
TGI (DU-145 prostate): 35.9 µM
GI50 (UACC-257 melanoma): 24.7 µM
TGI (UACC-257 melanoma): 51.6 µM
GI50 (HL-60(TB) leukemia): 17.4 µM
TGI (HL-60(TB) leukemia): 41.2 µM
GI50 (HS 578T breast): 23.8 µM
TGI (HS 578T breast): 58.8 µM
GI50 (MDA-MB-435): 22.1 µM
TGI (MDA-MB-435): 49.4 µM
GI50 (HOP-92 NSCLC): 13 µM
TGI (HOP-92 NSCLC): 29.8 µM
GI50 (HT29 colon): 12.1 µM
TGI (HT29 colon): 25.3 µM
GI50 (U251 CNS): 18.4 µM
TGI (U251 CNS): 38.5 µM
GI50 (SF-268 CNS): 21.9 µM
TGI (SF-268 CNS): 53.2 µM
GI50 (BT-549 breast): 17.7 µM
TGI (BT-549 breast): 40.5 µM
GI50 (COLO 205 colon): 17 µM
TGI (COLO 205 colon): 31.4 µM
GI50 (SNB-75 CNS): 20.7 µM
TGI (SNB-75 CNS): 59.6 µM
GI50 (SW-620 colon): 18.9 µM
TGI (SW-620 colon): 36.9 µM
GI50 (LOX IMVI melanoma): 17.1 µM
TGI (LOX IMVI melanoma): 30.8 µM
GI50 (SF-539 CNS): 16.5 µM
TGI (SF-539 CNS): 30.2 µM
GI50 (NCI-H226 lung): 17.3 µM
TGI (NCI-H226 lung): 36.5 µM
GI50 (MDA-MB-231 breast): 15.7 µM
TGI (MDA-MB-231 breast): 33.3 µM
GI50 (SF-295 CNS): 32.9 µM
TGI (SF-295 CNS): > 100 µM
GI50 (KM12 colon): 20.1 µM
TGI (KM12 colon): 44.8 µM
GI50 (786-0 renal): 15.8 µM
TGI (786-0 renal): 40.9 µM
GI50 (NCI-H460 lung): 19.1 µM
TGI (NCI-H460 lung): 36.7 µM
GI50 (K-562 leukemia): 12.2 µM
TGI (K-562 leukemia): 27.2 µM

— PubChem BioAssay (NCI)
